BindingDB's records for doi:10.1016/j.bmc.2019.115125 (Duquesne University, 2019)

Assays:
[1] = Binding affinity to human RFC expressed in Chinese hamster PC43-10 cells assessed as antiproliferative activity measured as reduction in cell growth after 96 hrs by Cell-Titer Blue assay
[2] = Binding affinity to human FRalpha expressed in Chinese hamster RT16 cells assessed as antiproliferative activity measured as reduction in cell growth after 96 hrs by Cell-Titer Blue assay
[3] = Binding affinity to human PCFT expressed in Chinese hamster R2/PCFT4 cells assessed as antiproliferative activity measured as reduction in cell growth after 96 hrs by Cell-Titer Blue assay

SMILES	IC50 [1] [nM]	IC50 [2] [nM]	IC50 [3] [nM]
CN(Cc1cc2c(=O)[nH]c(N)nc2[nH]1)C(=O)c1ccc(C(=O)N[C@@H](CCC(=O)O)C(=O)O)cc1	> 1000		49
CN(Cc1cc2c(=O)[nH]c(N)nc2[nH]1)C(=O)c1cccc(C(=O)N[C@@H](CCC(=O)O)C(=O)O)c1	> 1000	1.8	747
CN(Cc1cc2c(=O)[nH]c(N)nc2[nH]1)C(=O)c1cc(C(=O)N[C@@H](CCC(=O)O)C(=O)O)cs1	> 1000	867	> 1000
CN(Cc1cc2c(=O)[nH]c(N)nc2[nH]1)C(=O)c1csc(C(=O)N[C@@H](CCC(=O)O)C(=O)O)c1	> 1000	> 1000	> 1000

Continued, values first:

IC50 [1] [nM]	IC50 [2] [nM]	IC50 [3] [nM]	SMILES
> 1000	7.8	> 1000	CN(Cc1cc2c(=O)[nH]c(N)nc2[nH]1)C(=O)c1ccc(C(=O)N[C@@H](CCC(=O)O)C(=O)O)s1
> 1000	> 1000	> 1000	CN(Cc1cc2c(=O)[nH]c(N)nc2[nH]1)S(=O)(=O)c1ccc(C(=O)N[C@@H](CCC(=O)O)C(=O)O)cc1
